Reference: PMC2630805, “Anticancer Alkaloid Lamellarins Inhibit Protein Kinases” (Marine Drugs, 2008)
pIC50: −log10 of the molar value.

Experiments:
SH-SY5Y cells = assay: Kinetics and dose-response of cell death (MTS reduction, LDH release, DEVDase caspase activity); assay type: cell-based, human; conditions: dose-response, doses as low as
Experimental: SH-SY5Y cells were next incubated with a range of lamellarin N concentrations or at 1 μM over 48 hrs. Cell survival was monitored by the MTS reduction assay, cell death was assessed by the LDH release assay and caspase activation was measured using DEVD as a substrate (Figure 1).
Figure 1. Dose- and time- dependent induction of cell death by lamellarin N. (A) Neuroblastoma SH-SY5Y cells were treated with lamellarin N at various concentrations. Cell death was measured by LDH release, cell survival was assessed by the MTS reduction assay, and caspase 3 activity was monitored as DEVDase activity. MTS and LDH assay were carried out 48 hours after treatment with lamellarin N. The caspase assay was carried out 24 hours after treatment. (B) Kinetics of cell survival, cell death and caspases activation following exposure of SH-SY5Y cells to 1 μM lamellarin N. Average of 3 independent experiments performed in triplicate. The standard deviation (±SD) is indicated by error bars.
SH-SY5Y human neuroblastoma cells were grown in DMEM supplemented with 2mM L-glutamine (Invitrogen, Cergy Pontoise, France), plus antibiotics (penicillin-streptomycin) and a 10% volume of fetal calf serum (FCS) (Invitrogen). Cell viability was determined by means of the MTS (3- (4,5-dimethylthiazol-2-yl)-5- (3-carboxymethoxyphenyl)-2- (4-sulfophenyl)-2H -tetrazolium) reduction method as previously described. […]

CHK1 (h) = CHK1 (h) (Homo sapiens, UniProt O14757); assay: CEREP Kinase Selectivity Panel; assay type: biochemical; conditions: 10 μM lamellarin N
ERK2 (h) (P42mapk) = ERK2 (h) (P42mapk) (Homo sapiens, UniProt P28482); assay: CEREP Kinase Selectivity Panel; assay type: biochemical; conditions: 10 μM lamellarin N
PKA (h) = PKA (h) (Homo sapiens, UniProt P17612); assay: CEREP Kinase Selectivity Panel; assay type: biochemical; conditions: 10 μM lamellarin N
IRK (h) (InsR) = IRK (h) (InsR) (Homo sapiens, UniProt P06213); assay: CEREP Kinase Selectivity Panel; assay type: biochemical; conditions: 10 μM lamellarin N
[1] = test system: human neuroblastoma SH-SY5Y cells; assay: SH-SY5Y cell survival, MTS reduction assay; assay type: cell-based; conditions: read-out: IC50 SH-SY5Y cell survival
Experimental: We next tested the effects of each lamellarin, at an initial 10 μM concentration, on the survival of the neuroblastoma SH-SY5Y cell line after 48 h exposure (Table 2). Cell survival was estimated by the MTS reduction assay.
SH-SY5Y human neuroblastoma cells were grown in DMEM supplemented with 2mM L-glutamine (Invitrogen, Cergy Pontoise, France), plus antibiotics (penicillin-streptomycin) and a 10% volume of fetal calf serum (FCS) (Invitrogen). Cell viability was determined by means of the MTS (3- (4,5-dimethylthiazol-2-yl)-5- (3-carboxymethoxyphenyl)-2- (4-sulfophenyl)-2H -tetrazolium) reduction method as previously described. Cell death was (also) assayed by LDH release. Lactate dehydrogenase is a stable cytosolic enzyme that is released upon cell lysis. SH-SY5Y cells were also subjected to caspase activity assays. These are based on cleavage of a synthetic caspase substrate DEVD (MP Biomedicals, 199423), a subtrate of active caspase 3/6/7. The assay was carried out according to manufacturer’s instructions.

CK1 = CK1 kinase assay (CKS peptide); assay type: biochemical, porcine; conditions: 15 μM ATP; cell '− (x)' = no inhibitory activity detected, x = highest concentration tested
Experimental: CK1 was purified from porcine brain by affinity chromatography on immobilized axin fragment. The mixture of native CK1 isoforms (essentially CK1δ and CK1ɛ) was assayed in three-fold diluted buffer C, using 25 μM CKS peptide, a CK1 selective substrate (RRKHAAIGpSAYSITA, synthesized by Millegen (Labège, France). Assays were performed for 30 min. at 30°C, as described for GSK-3.

ROCK2 (h) = ROCK2 (h) (Homo sapiens, UniProt O75116); assay: CEREP Kinase Selectivity Panel; assay type: biochemical; conditions: 10 μM lamellarin N
FGFR4 kinase (h) = FGFR4 kinase (h) (Homo sapiens, UniProt P22455); assay: CEREP Kinase Selectivity Panel; assay type: biochemical; conditions: 10 μM lamellarin N
AMPKα = assay: CEREP Kinase Selectivity Panel; assay type: biochemical; conditions: 10 μM lamellarin N
CHK2 (h) = CHK2 (h) (Homo sapiens, UniProt O96017); assay: CEREP Kinase Selectivity Panel; assay type: biochemical; conditions: 10 μM lamellarin N
BMX kinase (h) (Etk) = BMX kinase (h) (Etk) (Homo sapiens, UniProt P51813); assay: CEREP Kinase Selectivity Panel; assay type: biochemical; conditions: 10 μM lamellarin N
ERK1 (h) = ERK1 (h) (Homo sapiens, UniProt P27361); assay: CEREP Kinase Selectivity Panel; assay type: biochemical; conditions: 10 μM lamellarin N
KDR kinase (h) (VEGFR2) = KDR kinase (h) (VEGFR2) (Homo sapiens, UniProt P35968); assay: CEREP Kinase Selectivity Panel; assay type: biochemical; conditions: 10 μM lamellarin N
CDC2/CDK1 (h) (cycB) = CDC2/CDK1 (h) (cycB) (Homo sapiens, UniProt P06493); assay: CEREP Kinase Selectivity Panel; assay type: biochemical; conditions: 10 μM lamellarin N
CDC2/CDK1 (h) (cycB), sequence (P06493 whole entry): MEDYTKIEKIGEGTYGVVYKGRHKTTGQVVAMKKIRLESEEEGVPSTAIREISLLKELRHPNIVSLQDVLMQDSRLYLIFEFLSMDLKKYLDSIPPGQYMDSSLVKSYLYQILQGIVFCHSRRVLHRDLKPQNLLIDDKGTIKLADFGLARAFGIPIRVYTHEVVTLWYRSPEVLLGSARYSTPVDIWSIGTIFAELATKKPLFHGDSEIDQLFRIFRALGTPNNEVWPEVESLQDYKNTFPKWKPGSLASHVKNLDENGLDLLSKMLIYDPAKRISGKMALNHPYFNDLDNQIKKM
CDC2/CDK1 (h) (cycB), sequence (P14635 whole entry partner): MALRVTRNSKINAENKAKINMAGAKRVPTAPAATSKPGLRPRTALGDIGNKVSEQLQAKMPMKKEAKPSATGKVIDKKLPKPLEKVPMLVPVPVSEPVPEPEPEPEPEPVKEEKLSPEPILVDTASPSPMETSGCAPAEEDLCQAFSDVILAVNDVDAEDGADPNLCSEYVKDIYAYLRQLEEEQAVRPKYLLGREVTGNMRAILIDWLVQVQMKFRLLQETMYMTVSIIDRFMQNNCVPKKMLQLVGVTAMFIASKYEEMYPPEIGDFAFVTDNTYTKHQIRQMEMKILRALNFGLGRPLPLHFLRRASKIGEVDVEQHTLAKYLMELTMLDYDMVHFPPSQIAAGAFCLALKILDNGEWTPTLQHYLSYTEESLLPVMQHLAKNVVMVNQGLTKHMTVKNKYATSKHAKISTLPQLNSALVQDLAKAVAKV

ERK1 (h), sequence (P27361 whole entry): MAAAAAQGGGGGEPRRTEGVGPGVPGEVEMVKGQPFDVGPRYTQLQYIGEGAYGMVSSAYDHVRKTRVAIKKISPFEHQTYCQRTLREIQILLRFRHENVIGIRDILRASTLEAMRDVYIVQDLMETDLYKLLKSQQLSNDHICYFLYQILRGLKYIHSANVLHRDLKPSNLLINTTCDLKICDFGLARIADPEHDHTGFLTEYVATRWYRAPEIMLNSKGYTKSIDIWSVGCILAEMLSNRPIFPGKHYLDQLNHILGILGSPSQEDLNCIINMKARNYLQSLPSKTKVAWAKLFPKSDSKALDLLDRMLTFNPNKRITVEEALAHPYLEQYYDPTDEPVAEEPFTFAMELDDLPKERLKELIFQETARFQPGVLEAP
FGFR4 kinase (h), sequence (P22455 22-802): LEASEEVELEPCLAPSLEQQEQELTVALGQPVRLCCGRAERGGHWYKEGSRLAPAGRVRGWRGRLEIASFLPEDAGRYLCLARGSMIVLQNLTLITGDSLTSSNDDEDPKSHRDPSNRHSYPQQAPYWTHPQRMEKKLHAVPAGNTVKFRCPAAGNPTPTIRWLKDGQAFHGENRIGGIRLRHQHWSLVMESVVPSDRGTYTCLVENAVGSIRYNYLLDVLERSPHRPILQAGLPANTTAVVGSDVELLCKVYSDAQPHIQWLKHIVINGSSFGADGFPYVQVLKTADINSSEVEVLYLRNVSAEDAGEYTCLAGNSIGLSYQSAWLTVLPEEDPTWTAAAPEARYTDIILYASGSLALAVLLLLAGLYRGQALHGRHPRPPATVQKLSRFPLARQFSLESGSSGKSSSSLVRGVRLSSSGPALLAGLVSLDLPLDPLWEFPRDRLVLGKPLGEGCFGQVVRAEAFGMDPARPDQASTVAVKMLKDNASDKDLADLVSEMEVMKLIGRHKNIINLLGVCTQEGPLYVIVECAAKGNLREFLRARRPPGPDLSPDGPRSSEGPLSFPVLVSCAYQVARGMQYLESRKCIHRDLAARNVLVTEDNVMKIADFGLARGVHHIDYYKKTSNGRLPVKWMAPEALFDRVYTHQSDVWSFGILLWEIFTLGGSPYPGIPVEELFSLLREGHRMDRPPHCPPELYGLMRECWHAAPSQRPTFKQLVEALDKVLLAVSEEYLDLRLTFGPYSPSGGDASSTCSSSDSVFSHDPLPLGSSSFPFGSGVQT
IRK (h) (InsR), sequence (P06213 28-1382): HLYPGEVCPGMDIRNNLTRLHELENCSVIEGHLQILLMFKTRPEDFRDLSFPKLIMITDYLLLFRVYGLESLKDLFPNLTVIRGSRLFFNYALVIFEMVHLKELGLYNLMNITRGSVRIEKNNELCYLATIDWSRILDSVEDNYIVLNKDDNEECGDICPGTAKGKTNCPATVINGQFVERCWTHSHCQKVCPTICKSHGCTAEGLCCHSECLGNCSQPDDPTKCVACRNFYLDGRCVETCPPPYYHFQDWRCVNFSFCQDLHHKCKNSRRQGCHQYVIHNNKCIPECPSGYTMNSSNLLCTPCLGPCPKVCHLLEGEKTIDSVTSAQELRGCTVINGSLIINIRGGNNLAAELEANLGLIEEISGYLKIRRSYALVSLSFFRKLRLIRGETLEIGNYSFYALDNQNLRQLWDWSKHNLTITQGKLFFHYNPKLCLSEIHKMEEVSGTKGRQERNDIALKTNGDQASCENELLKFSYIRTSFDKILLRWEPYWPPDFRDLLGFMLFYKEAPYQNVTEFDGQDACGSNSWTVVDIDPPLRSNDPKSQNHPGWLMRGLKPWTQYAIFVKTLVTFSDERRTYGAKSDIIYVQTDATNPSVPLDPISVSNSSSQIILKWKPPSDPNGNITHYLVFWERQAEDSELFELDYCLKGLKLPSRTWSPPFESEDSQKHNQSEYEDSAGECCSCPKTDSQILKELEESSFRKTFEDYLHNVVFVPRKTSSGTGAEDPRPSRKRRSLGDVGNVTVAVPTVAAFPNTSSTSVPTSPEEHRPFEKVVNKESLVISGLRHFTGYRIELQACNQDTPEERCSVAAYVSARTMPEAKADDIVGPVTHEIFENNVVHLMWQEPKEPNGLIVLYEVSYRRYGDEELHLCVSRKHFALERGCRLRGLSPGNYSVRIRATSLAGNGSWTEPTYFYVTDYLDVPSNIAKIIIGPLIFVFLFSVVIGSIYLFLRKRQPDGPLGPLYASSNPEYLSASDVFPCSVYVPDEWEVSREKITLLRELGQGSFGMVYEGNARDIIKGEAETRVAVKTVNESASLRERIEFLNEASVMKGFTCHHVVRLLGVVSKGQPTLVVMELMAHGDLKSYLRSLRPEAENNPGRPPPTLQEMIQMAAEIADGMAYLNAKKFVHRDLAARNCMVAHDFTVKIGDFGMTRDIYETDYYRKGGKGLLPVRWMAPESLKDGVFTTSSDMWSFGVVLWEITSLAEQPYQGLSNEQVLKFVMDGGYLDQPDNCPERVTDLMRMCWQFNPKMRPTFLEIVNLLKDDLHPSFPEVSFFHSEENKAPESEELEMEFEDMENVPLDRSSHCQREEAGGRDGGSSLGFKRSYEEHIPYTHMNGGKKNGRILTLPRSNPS
BMX kinase (h) (Etk), sequence (P51813 whole entry): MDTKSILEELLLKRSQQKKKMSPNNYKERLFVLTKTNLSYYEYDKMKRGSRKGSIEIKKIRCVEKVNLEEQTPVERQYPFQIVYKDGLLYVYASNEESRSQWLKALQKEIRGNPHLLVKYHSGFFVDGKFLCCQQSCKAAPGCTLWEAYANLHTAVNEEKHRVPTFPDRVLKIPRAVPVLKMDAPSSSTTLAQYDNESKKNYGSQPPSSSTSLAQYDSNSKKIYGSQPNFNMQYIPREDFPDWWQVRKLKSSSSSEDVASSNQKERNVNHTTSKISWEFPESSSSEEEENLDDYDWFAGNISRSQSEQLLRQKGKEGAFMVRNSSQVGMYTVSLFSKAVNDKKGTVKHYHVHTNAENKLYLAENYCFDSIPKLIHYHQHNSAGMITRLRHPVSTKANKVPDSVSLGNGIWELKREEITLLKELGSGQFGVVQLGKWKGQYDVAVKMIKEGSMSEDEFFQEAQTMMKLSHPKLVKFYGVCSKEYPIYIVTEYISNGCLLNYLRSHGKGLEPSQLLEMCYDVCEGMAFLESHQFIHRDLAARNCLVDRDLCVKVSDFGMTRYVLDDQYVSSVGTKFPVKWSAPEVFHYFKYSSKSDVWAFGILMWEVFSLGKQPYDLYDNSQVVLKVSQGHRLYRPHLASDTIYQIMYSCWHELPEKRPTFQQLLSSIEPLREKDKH
ERK2 (h) (P42mapk), sequence (P28482 whole entry): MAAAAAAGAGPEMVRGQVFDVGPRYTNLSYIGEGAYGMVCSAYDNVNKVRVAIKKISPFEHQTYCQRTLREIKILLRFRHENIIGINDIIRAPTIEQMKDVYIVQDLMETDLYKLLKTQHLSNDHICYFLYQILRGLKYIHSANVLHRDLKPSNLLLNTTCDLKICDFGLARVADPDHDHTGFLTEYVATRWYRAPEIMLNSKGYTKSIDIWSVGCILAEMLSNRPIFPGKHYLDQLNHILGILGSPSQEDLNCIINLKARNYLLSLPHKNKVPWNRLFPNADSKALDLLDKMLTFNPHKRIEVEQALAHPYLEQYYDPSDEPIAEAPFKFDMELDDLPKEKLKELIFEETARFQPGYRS
CHK2 (h), sequence (O96017 whole entry): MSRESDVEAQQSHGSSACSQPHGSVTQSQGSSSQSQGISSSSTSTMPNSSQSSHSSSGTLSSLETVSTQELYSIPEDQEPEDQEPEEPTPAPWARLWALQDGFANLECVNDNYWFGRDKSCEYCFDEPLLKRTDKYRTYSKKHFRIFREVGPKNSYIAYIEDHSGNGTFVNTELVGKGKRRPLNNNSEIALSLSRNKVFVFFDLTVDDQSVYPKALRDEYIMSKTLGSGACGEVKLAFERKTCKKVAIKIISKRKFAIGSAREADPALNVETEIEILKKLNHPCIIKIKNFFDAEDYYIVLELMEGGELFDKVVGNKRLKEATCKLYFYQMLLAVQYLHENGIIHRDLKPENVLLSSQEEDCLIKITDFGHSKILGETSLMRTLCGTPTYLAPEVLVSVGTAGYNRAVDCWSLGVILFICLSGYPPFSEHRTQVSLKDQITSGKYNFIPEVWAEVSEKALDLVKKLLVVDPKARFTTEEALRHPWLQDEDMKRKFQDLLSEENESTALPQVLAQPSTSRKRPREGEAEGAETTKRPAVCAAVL

COc1ccc(-c2c3c4cc(OC)c(O)cc4oc(=O)c3n3ccc4cc(O)c(OC)cc4c23)cc1O [Compound 6, lamellarin N]
lowest dose at which cells start dying (SH-SY5Y cells): 0.05 µM | Activity (% of control) (CHK1 (h)): 93.3 % of control | Activity (% of control) (ERK2 (h) (P42mapk)): 79.9 % of control | Activity (% of control) (PKA (h)): 80.0 % of control | Activity (% of control) (IRK (h) (InsR)): 46.7 % of control | pIC50 [1]: 7.60 | pIC50 (CK1): < 5.00 | Activity (% of control) (ROCK2 (h)): 103.3 % of control | Activity (% of control) (FGFR4 kinase (h)): 62.5 % of control | Activity (% of control) (AMPKα): 42.4 % of control | Activity (% of control) (CHK2 (h)): 47.6 % of control | Activity (% of control) (BMX kinase (h) (Etk)): 60.8 % of control | Activity (% of control) (ERK1 (h)): 94.1 % of control | Activity (% of control) (KDR kinase (h) (VEGFR2)): 7.4 % of control | Activity (% of control) (CDC2/CDK1 (h) (cycB)): 20.4 % of control
